This note sets out measurements from patent publication US20130345061A1 (priority 2011, published 2013).

The assay relates to Pseudomonas syringae pv. porri. The class given is in vivo. The conditions noted are these: for % infection / Total number of positive leaves per object: repeats A and B.
Where [1] appears, read: wetting agent 0, leek, natural washing off 15 mm, reading after 8 weeks.
Where [2] appears, read: wetting agent (emulsion according to the invention) 0.25%, CuSO4 6 g/L.
[3] abbreviates: wetting agent (emulsion according to the invention) 0.50%, CuSO4 6 g/L.
The mark [4] stands for this setting: wetting agent (emulsion according to the invention) 1.00%, CuSO4 6 g/L.

“And” between values parts separate entries of the source, which are not always exact repeats. Identical values can stand only once. Like-named read-outs stand apart in the source and are kept apart here.

On to `O=S(=O)([O-])[O-].[Cu+2]` [CuSO4, copper sulfate], for which, where the note is “copper sulfate with the wetting agent at 0.5% or 1%”, the “significant difference to reference product Phyton 27 (statistical test)” value is recorded as “equivalent to the reference product”. Further, the “% infection” value is 52% and 49% under setting [1]; 35% and 37% under setting [2]; 31% under setting [3]; 25% and 27% under setting [4]. The “Total number of positive leaves per object” value (“Total number … per object” below) under setting [1] is listed as 29; the “Total number … per object” value under setting [2] was 18 and 17; the “Total number … per object” value under setting [3] was 17 and 16; the “Total number … per object” value under setting [4] was 13 and 15. The “leaves attacked / level of infection per mode” value (without wetting agent, value for the whole mode) is “more than 50%”.
